Patent US8217048B2, “Inhibitors of serine proteases, particularly HCV NS3-NS4A protease” (Vertex Pharmaceuticals Incorporated, priority 2003, dated 2012)
pIC50, pKi: −log10 of the molar value.

Assays:
[1] = biological target: T1, HCV NS3-NS4A protease (Hepatitis C virus genotype 1a, UniProt P27958); experiment: HCV Ki Assay (enzyme, Example 5); format: biochemical; conditions: Ki values, tested according to Example 5 (enzyme); 5AB substrate, tNS3 with KK4A
T1 construct: The buffer, KK4A, DTT, and tNS3 were combined
T1 sequence (P27958 1658-1711): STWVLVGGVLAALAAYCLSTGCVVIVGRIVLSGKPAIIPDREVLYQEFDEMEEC
T1 sequence (P27958 1027-1208): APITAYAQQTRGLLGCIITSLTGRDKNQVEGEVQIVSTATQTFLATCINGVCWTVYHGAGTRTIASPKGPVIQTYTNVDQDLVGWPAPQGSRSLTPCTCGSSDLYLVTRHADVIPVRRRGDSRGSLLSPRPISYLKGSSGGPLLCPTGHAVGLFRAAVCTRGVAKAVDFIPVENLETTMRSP
Protocol: HPLC Microbore Method for Separation of 5AB Substrate and Products
NH2-Glu-Asp-Val-Val-(alpha)Abu-Cys-Ser-Met-Ser-Tyr-COOH
A stock solution of 20 mM 5AB (or concentration of your choice) was made in DMSO w/0.2M DTT. This was stored in aliquots at −20 C.
Buffer: 50 mM HEPES, pH 7.8; 20% glycerol; 100 mM NaCl
Total assay volume was 100 μL
The buffer, KK4A, DTT, and tNS3 were combined; distributed 78 μL each into wells of 96 well plate. This was incubated at 30 C for ˜5-10 min.
2.5 μL of appropriate concentration of test compound was dissolved in DMSO (DMSO only for control) and added to each well. This was incubated at room temperature for 15 min.
Initiated reaction by addition of 20 μL of 250 μM 5AB substrate (25 μM concentration is equivalent or slightly lower than the Km for 5AB).
Incubated for 20 min at 30 C.
Terminated reaction by addition of 25 μL of 10% TFA
Transferred 120 μL aliquots to HPLC vials
Separated SMSY product from substrate and KK4A by the following method:
Microbore Separation Method:
Instrumentation: Agilent 1100
Column thermostated chamber G1316A
Diode array detector G1315A
Solvent A=HPLC grade water+0.1% TFA
Solvent B=HPLC grade acetonitrile+0.1% TFA
Stop time: 17 min Post-run time: 10 min.

[2] = test system: Cells containing hepatitis C virus (HCV) replicon; experiment: HCV Replicon Cell Assay (Example 4); format: cell-based; conditions: 48 h, tested according to Example 4 (cell), 50% inhibition of HCV RNA level, 48-hour incubation
Protocol: HCV Replicon Cell Assay Protocol
Cells containing hepatitis C virus (HCV) replicon were maintained in DMEM containing 10% fetal bovine serum (FBS), 0.25 mg per ml of G418, with appropriate supplements (media A).
On day 1, replicon cell monolayer was treated with a trypsin:EDTA mixture, removed, and then media A was diluted into a final concentration of 100,000 cells per ml wit. 10,000 cells in 100 ul were plated into each well of a 96-well tissue culture plate, and cultured overnight in a tissue culture incubator at 37° C.
On day 2, compounds (in 100% DMSO) were serially diluted into DMEM containing 2% FBS, 0.5% DMSO, with appropriate supplements (media B). The final concentration of DMSO was maintained at 0.5% throughout the dilution series.
Media on the replicon cell monolayer was removed, and then media B containing various concentrations of compounds was added. Media B without any compound was added to other wells as no compound controls.
Cells were incubated with compound or 0.5% DMSO in media B for 48 hours in a tissue culture incubator at 37° C. At the end of the 48-hour incubation, the media was removed, and the replicon cell monolayer was washed once with PBS and stored at −80° C. prior to RNA extraction.
Culture plates with treated replicon cell monolayers were thawed, and a fixed amount of another RNA virus, such as Bovine Viral Diarrhea Virus (BVDV) was added to cells in each well, RNA extraction reagents (such as reagents from RNeasy kits) were added to the cells immediately to avoid degradation of RNA. Total RNA was extracted according the instruction of manufacturer with modification to improve extraction efficiency and consistency. Finally, total cellular RNA, including HCV replicon RNA, was eluted and stored at −80° C. until further processing.
A Taqman real-time RT-PCR quantification assay was set up with two sets of specific primers and probe. One was for HCV and the other was for BVDV. Total RNA extractants from treated HCV replicon cells was added to the PCR reactions for quantification of both HCV and BVDV RNA in the same PCR well. Experimental failure was flagged and rejected based on the level of BVDV RNA in each well. The level of HCV RNA in each well was calculated according to a standard curve run in the same PCR plate. The percentage of inhibition or decrease of HCV RNA level due to compound treatment was calculated using the DMSO or no compound control as 0% of inhibition. The IC50 (concentration at which 50% inhibition of HCV RNA level is observed) was calculated from the titration curve of any given compound.

| Structure (SMILES) | pKi [1] | pIC50 [2] |
| --- | --- | --- |
| CCC[C@H](NC(=O)[C@@H]1C[C@@H](Oc2ccc(OC(F)(F)F)cc2)CN1C(=O)[C@@H](NC(=O)[C@@H](NC(=O)c1cnccn1)C1CCCCC1)C(C)(C)C)C(=O)C(=O)NC1CC1 [Compound 14] | 6.52 to 7.00 | > 6.30 |
| CCC[C@H](NC(=O)[C@@H]1C[C@@H](Oc2ccc(C(=O)N3CCN(C(=O)OCc4ccccc4)CC3)cc2)CN1C(=O)[C@@H](NC(=O)[C@@H](NC(=O)c1cnccn1)C1CCCCC1)C(C)(C)C)C(=O)C(=O)NC1CC1 [Compound 70] | 6.52 to 7.00 | 6.00 to 6.30 |
| CCC[C@H](NC(=O)[C@@H]1C[C@@H](Oc2ccc(S(=O)(=O)NC)cc2)CN1C(=O)[C@@H](NC(=O)[C@@H](NC(=O)c1cnccn1)C1CCCCC1)C(C)(C)C)C(=O)C(=O)NC1CC1 [Compound 48] | 6.52 to 7.00 | > 6.30 |
| CCC[C@H](NC(=O)[C@@H]1C[C@@H](Oc2ccc(F)cc2)CN1C(=O)[C@@H](NC(=O)[C@@H](NC(=O)c1cnccn1)C1CCCCC1)C(C)(C)C)C(=O)C(=O)NC1CC1 [Compound 43] | > 7.00 | > 6.30 |
| CCC[C@H](NC(=O)[C@@H]1C[C@@H](Oc2ccc([N+](=O)[O-])cc2)CN1C(=O)[C@@H](NC(=O)[C@@H](NC(=O)c1cnccn1)C1CCCCC1)C(C)(C)C)C(=O)C(=O)NC1CC1 [Compound 44] | > 7.00 | > 6.30 |
| CCC[C@H](NC(=O)[C@@H]1C[C@@H](Oc2cccc(C(=O)NC)c2)CN1C(=O)[C@@H](NC(=O)[C@@H](NC(=O)c1cnccn1)C1CCCCC1)C(C)(C)C)C(=O)C(=O)NC1CC1 [Compound 46] | > 7.00 | > 6.30 |
| CCC[C@H](NC(=O)C1C[C@@H](Oc2ccccc2F)CN1C(=O)[C@@H](NC(=O)[C@@H](NC(=O)c1cnccn1)C1CCCCC1)C(C)(C)C)C(=O)C(=O)NC1CC1 (some centres unmarked) [Compound 4] | 6.52 to 7.00 | 6.00 to 6.30 |
| CCC[C@H](NC(=O)[C@@H]1C[C@@H](Oc2ccncn2)CN1C(=O)[C@@H](NC(=O)[C@@H](NC(=O)c1cnccn1)C1CCCCC1)C(C)(C)C)C(=O)C(=O)NC1CC1 [Compound 50] | 6.52 to 7.00 | > 6.30 |
| CCC[C@H](NC(=O)[C@@H]1C[C@@H](Oc2ccc(Cl)cc2)CN1C(=O)[C@@H](NC(=O)[C@@H](NC(=O)c1cnccn1)C1CCCCC1)C(C)(C)C)C(=O)C(=O)NC1CC1 [Compound 56] | > 7.00 | > 6.30 |
| CCC[C@H](NC(=O)[C@@H]1C[C@@H](Oc2ccnc3cc(C(F)(F)F)ccc23)CN1C(=O)[C@@H](NC(=O)[C@@H](NC(=O)c1cnccn1)C1CCCCC1)C(C)(C)C)C(=O)C(=O)NC1CC1 [Compound 67] | > 7.00 | > 6.30 |
